# Data reported in patent US9434741B2, “Thieno[2,3-d]pyrimidine derivatives, preparation method and use thereof” (FUJIAN INSTITUTE OF RESEARCH ON THE STRUCTURE OF MATTER, …, priority 2012, dated 2016).
# Legend:
# [1] = test system: colon cancer cell lines (HCT-116); experiment: SRB screening of inhibitory activity against colon cancer cell lines (HCT-116); type: cell-based; conditions: HCT-116 cells, compound concentration 1×10^−4 M, 72 hours incubation, SRB method, A560; for inhibition at 100 µM: Homo sapiens, read-out: Inhibitory ratio (%)
# Text: (§1) The inhibitory activity against colon cancer cell lines (HCT-116) and human lung cancer cell lines (A549) were screened with an SRB method. The procedure of screening was described in the reference (Li M. H., Miao Z. H., Tan W. F. et al. Clin. Cancer Res. 2004, 10(24): 8266-8274).
# (§2) Detailed experimental procedure is as follows:
# (§3) (1) According to the growth rate of tumor cells, colon cancer cell lines (HCT-116) in logarithmic growth phase were inoculated in 96-well culture plates and allowed to adhere to the wall for 24 h. The medicants with a concentration of 1×10^−4 M were added. Three replicate wells were set for the concentration, and saline control and non-apoptotic well of the corresponding concentration were set. The tumor/cancer cells were incubated for 72 hours at 37 in 5% CO2; (2) the plates were taken out, and the cells were fixed in each well with 10% cold […] (TCA) solution at 4 for 1 hour; (3) the fixation fluid was removed, and the plates were rinsed 5 times with distilled water and naturally dried in air; (4) SRB solution prepared from glacial acetic acid (1%) was added to stain at room temperature for 15 min; (5) the supernatant was removed, and the residue was washed 5 times with 1% acetic acid and air-dried; (6) finally Tris solution was added and the plates were shaken on a plate shaker for 5 min. Absorbance value at 560 nm (A560) was determined by using a wavelength-tunable microplate reader. Enzyme inhibitory ratio was calculated with the following formula: […]
# (§4) The activities of the compounds represented by formula (I) or salts thereof of inhibiting colon cancer cell lines (HCT-116) and human lung cancer cell lines A549 at a concentration of 1×10^−4 M were determined.
# [2] = test system: human lung cancer cell lines (A549); experiment: SRB screening of inhibitory activity against human lung cancer cell lines (A549); type: cell-based; conditions: A549 cells, compound concentration 1×10^−4 M, SRB method; for inhibition at 100 µM: Homo sapiens, 72 h, read-out: Inhibitory ratio (%)
# Text: as §1, §2, §3, §4
SMILES,inhibition at 100 µM [1] [%],inhibition at 100 µM [2] [%],other results
CCc1cc2c(OCc3cc(-c4ccc(Br)cc4)no3)ncnc2s1 [Compound S-88],60.9,–,–
CCc1cc2c(OCc3cc(-c4ccc(OC)cc4)no3)ncnc2s1 [Compound S-83],69.6,89.4,–
Cc1sc2ncnc(OCc3cc(-c4ccccc4Cl)no3)c2c1C [Compound S-106],–,71.6,–
Cc1sc2ncnc(OCc3cc(-c4ccc(Cl)cc4Cl)no3)c2c1C [Compound S-107],72.9,–,–
Cc1csc2ncnc(OCc3cc(-c4ccc(Br)cc4)no3)c12 [Compound S-8],–,85.9,–
COc1ccc(-c2cc(COc3ncnc4scc(C)c34)on2)cc1 [Compound S-3],70,86.4,Inhibitory ratio (%) [1]: 70.0%
Cc1csc2ncnc(OCc3cc(-c4ccc(Cl)cc4)no3)c12 [Compound S-5],–,80.8,–
"Cc1csc2ncnc(OCc3cc(-c4ccccc4)no3)c12 [Compound S-1, 5-methyl-4-((3-phenyl-isoxazol-5-yl)-methoxy-)-thieno[2,3-d]pyrimidine]",–,85,–
Cc1sc2ncnc(OCc3cc(-c4ccccc4)no3)c2c1C [Compound S-101],68.8,88,Inhibitory ratio (%) [2]: 88.0%
CCc1cc2c(OCc3cc(-c4ccc(Cl)cc4Cl)no3)ncnc2s1 [Compound S-87],72.7,–,–
COc1ccc(-c2cc(COc3ncnc4sc(C)c(C)c34)on2)cc1 [Compound S-103],71.1,–,–
Cc1csc2ncnc(OCc3cc(-c4ccccc4Cl)no3)c12 [Compound S-6],–,75.6,–
Cc1ccc(-c2cc(COc3ncnc4scc(C)c34)on2)cc1 [Compound S-2],–,80,–
c1ccc(-c2cc(COc3ncnc4sc5c(c34)CCCC5)on2)cc1 [Compound S-121],–,54.1,–
Cc1ccc(-c2cc(COc3ncnc4sc(C)c(C)c34)on2)cc1 [Compound S-102],62.9,–,–
